# Experimental data published in patent US20250255966A1, “CORN PHYTOGLYCOGEN FORMULATIONS FOR STABILIZING PROTEINS” (UNIVERSITY OF FLORIDA RESEARCH FOUNDATION, INCORPORATED, priority 2022, published 2025).
# System: GFP
# Test: GFP preservation, comparison with common excipients
# Format: biochemical
# Conditions: after 10 cycles of lyophilization, excipient 20 mg/mL, 4 μM GFP
# Protocol: As a model protein, 4 μM GFP was used. Each excipient was prepared at a concentration of 20 mg/mL as described above. Each excipient was mixed with GFP at a 1:1 (v/v) ratio. PBS without excipient was used as a control group. Samples were lyophilized, activity was measured, and relative activity was calculated using the same methods as above.
Compound,GFP stabilizing activity vs BSA,effectiveness as GFP/protein stabilizer
OC[C@H]1O[C@@](CO)(O[C@H]2O[C@H](CO)[C@@H](O)[C@H](O)[C@H]2O)[C@@H](O)[C@@H]1O [sucrose],comparable,–
OC[C@H]1O[C@H](O[C@H]2O[C@H](CO)[C@@H](O)[C@H](O)[C@H]2O)[C@H](O)[C@@H](O)[C@@H]1O [trehalose],comparable,–
polyethylene glycol [PEG],–,not an effective GFP stabilizer
